# Data published in patent US9133224B2, “Macrocyclic kinase inhibitors” (OSI Pharmaceuticals, LLC, priority 2010, dated 2015).
# Molecular target: T1, GST-tagged full-length FAK enzyme (PTK2) (Homo sapiens, UniProt Q05397)
# T1 construct: GST-tagged full-length FAK enzyme (PTK2, Invitrogen PV4085); GST; purchased Invitrogen PV4085
# Assay: Biochemical Omnia Assay (FAK)
# Settings: not given
# Experimental: Biochemical Omnia Assay Protocol
# The Omnia Assay (Invitrogen) has been optimized for GST-tagged full-length FAK enzyme (PTK2, Invitrogen PV4085).
# All compound concentrations were assayed in duplicate. Initial compound dilutions were prepared at 100× concentration in 100% DMSO from a 10 mM stock solution. Compounds were further diluted 1:25 in assay buffer resulting in a 4× concentrated solution.
# In running the assay, 5 μL of the above 4× concentrated compound solution (or 4% DMSO for positive controls) was added to the assay plate followed by 5 μL of a solution containing peptide (40 μM) and ATP (200 μM) in assay buffer. The reaction was initiated by the addition of 10 μL of FAK (50 nM) in assay buffer, or assay buffer alone for negative controls. The increase in fluorescence due to peptide phosphorylation was monitored continuously as a function of time using a Spectramax M5 plate reader (Molecular Devices) equipped with SoftMax Pro 5.2 software.
# IC50 values were determined from the slopes of the linear progress curves by non-linear curve-fitting using GraphPad Prism 5 (GraphPad Software, Inc.).
# T1 sequence (Q05397 whole entry): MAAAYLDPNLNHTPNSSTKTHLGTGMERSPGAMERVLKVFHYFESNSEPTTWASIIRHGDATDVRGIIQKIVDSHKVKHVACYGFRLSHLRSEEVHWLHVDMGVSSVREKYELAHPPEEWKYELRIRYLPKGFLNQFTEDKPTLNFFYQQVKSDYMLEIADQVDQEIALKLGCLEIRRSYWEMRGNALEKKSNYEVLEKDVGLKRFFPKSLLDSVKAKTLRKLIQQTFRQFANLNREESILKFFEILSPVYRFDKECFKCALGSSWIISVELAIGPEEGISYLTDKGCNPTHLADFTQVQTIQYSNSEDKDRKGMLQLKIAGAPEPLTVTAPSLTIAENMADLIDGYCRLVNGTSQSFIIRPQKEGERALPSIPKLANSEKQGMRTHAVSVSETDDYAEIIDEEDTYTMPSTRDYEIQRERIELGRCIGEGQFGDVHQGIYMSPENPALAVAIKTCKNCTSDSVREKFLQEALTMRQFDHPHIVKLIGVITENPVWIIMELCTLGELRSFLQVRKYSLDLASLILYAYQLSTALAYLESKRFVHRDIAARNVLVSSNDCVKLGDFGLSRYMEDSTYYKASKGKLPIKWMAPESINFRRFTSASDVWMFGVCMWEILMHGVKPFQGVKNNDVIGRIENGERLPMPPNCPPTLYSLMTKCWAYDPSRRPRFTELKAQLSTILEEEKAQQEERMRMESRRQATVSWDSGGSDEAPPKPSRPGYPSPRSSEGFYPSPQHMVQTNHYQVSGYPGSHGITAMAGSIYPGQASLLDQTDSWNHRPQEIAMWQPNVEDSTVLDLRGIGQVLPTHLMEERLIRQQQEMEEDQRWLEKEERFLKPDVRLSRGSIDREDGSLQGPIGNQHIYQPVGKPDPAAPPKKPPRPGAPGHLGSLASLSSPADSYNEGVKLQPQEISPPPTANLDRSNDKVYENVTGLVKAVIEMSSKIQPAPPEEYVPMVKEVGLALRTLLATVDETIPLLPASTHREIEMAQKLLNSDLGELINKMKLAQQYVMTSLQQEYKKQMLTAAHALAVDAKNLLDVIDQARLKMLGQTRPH
row,Compound,IC50 [µM]
1,CCOP1(=O)Cc2ccc(c(OC)c2)Nc2ncc(C(F)(F)F)c(n2)Nc2ccc(nc2C(=O)NOC)-c2cnn(c2)CCCO1 (racemic) [Example 46],< 0.4
2,CCOP1(=O)Cc2ccc(c(OC)c2)Nc2ncc(C(F)(F)F)c(n2)Nc2ccc(nc2C(=O)NC)-c2cnn(c2)CC2(COC2)CO1 (racemic) [Example 44],< 0.4
3,CCOP1(=O)Cc2ccc(c(OC)c2)Nc2ncc(C(F)(F)F)c(n2)Nc2ccc(nc2C(=O)NC)-c2cc(C(=O)O)n(c2)CCCO1 (racemic) [Example 39],< 0.4
4,CCOP1(=O)Cc2ccc(c(OC)c2)Nc2ncc(C(F)(F)F)c(n2)Nc2ccc(nc2C(=O)NC)-c2cnn(c2)CC(C)(C)CO1 (racemic) [Example 47],< 0.4

# Same assay, conditions: mean IC50; [ATP] = 50uM; read-out: FAK Activity Biochemical OMNIA; [ATP] = 50uM
row,Compound,IC50 [µM]
1,"CCOP1(=O)Cc2ccc(c(OC)c2)Nc2ncc(C(F)(F)F)c(n2)Nc2ccc(nc2C(=O)NC)-c2cnn(c2)C(C)(C)CCO1 (single isomer, unassigned) [Example 50A]",< 0.4
2,CCCP1(=O)Cc2ccc(c(OC)c2)Nc2ncc(C(F)(F)F)c(n2)Nc2ccc(cc2C(=O)NC)-c2cnn(c2)CCCO1 (racemic) [Example 66],< 0.4
3,CCOP1(=O)Cc2ccc(c(OC)c2)Nc2ncc(C(F)(F)F)c(n2)Nc2ccc(nc2C(=O)NC)-c2cnn(c2C)CCCO1 (racemic) [Example 35],< 0.4
4,"CNC(=O)c1nc2ccc1Nc1nc(ncc1C(F)(F)F)Nc1ccc(cc1OC)CP(=O)(C(C)C)OCCCn1cc-2cn1 (single isomer, unassigned) [Example 68B]",< 0.4
5,"CNC(=O)c1nc2ccc1Nc1nc(ncc1C(F)(F)F)Nc1ccc(cc1OC)CP(C)(=O)OCCCn1cc-2cn1 (single isomer, unassigned) [Example 61A]",< 0.4
6,CCOP1(=O)Cc2ccc(c(Cl)c2)Nc2ncc(C(F)(F)F)c(n2)Nc2ccc(nc2C(=O)NC)-c2cnn(c2)CCCO1 (racemic) [Example 24],< 0.4
7,CCOP1(=O)Cc2ccc(c(OC)c2)Nc2ncc(C(F)(F)F)c(n2)Nc2ccc(nc2C(=O)NC)-c2c(C)nn(c2C)CCCO1 (racemic) [Example 43],< 0.4
8,CNC(=O)c1nc2ccc1Nc1nc(ncc1C(F)(F)F)Nc1ccc(cc1OC)CP(=O)(C(C)C)OCCCn1cc-2cn1 (racemic) [Example 68],< 0.4
9,"CCOP1(=O)Cc2ccc(c(OC)c2)Nc2ncc(C(F)(F)F)c(n2)Nc2ccc(nc2C(=O)NC)-c2cn(nc2C)CCCO1 (single isomer, unassigned) [Example 34A]",< 0.4

# Same assay, conditions: read-out: FAK Activity Biochemical OMNIA; [ATP] = 50uM; mean IC50; [ATP] = 50uM
row,Compound,IC50 [µM]
1,"CCOP1(=O)Cc2ccc(c(OC)c2)Nc2ncc(C(F)(F)F)c(n2)Nc2ccc(nc2C(=O)NC)-c2cnn(c2)CC(F)(F)CO1 (single isomer, unassigned) [Example 59A]",< 0.4

# Molecular target: T2, FAK (Homo sapiens, UniProt Q05397)
# T2 construct: endogenous in cells; host or cells: U87MG glioblastoma cells (ATCC HTB-14)
# Assay: Cell-based capture ELISA for inhibition of FAK autophosphorylation [pY397] in U87MG cells
# Settings: 50% (v/v) human plasma, mean IC50, read-out: FAK Activity Mechanistic (U87MG) HP
# Experimental: Cell-Based Assays for Inhibition of FAK Autophosphorylation: MiaPaCa2 and U87MG
# The ability of compounds to inhibit FAK autophosphorylation was determined in a cell-based capture ELISA assay using U87MG glioblastoma cells (ATCC, Cat # HTB-14) and the FAK [pY397]ELISA kit from Invitrogen (KHO0441). The assay determines the ability of compounds to block endogenous autophosphorylation of FAK stimulated by fibronectin. Cells plated on fibronectin coated 96-well plate were incubated with compounds at various concentrations in the complete growth medium for 2 h. Cell lysates were then prepared and FAK protein was captured onto a FAK antibody-coated 96-well ELISA plate. The phosphotyrosine content of FAK protein was then monitored by quantitation of degree of binding of an antibody that recognizes only the phosphorylated FAK at Y397 within the captured protein.
# Reagents Provided in Biosource FAK [pY397]
# Cultures of U87MG cells growing in MEM (Earles) containing non-essential amino acids, sodium pyruvate (1 mM), […] (1%) and 10% fetal bovine serum were detached by trypsin-EDTA and suspended in cell growth medium. Cells were then plated onto fibronectin (600 ng/well)-coated 96-well flat bottom plates at 1.7×10^4 cells per well in 60 uL cell growth medium and incubated overnight at 37° C. in a CO2 incubator.
# Compound dilutions were prepared from 10 mM DMSO stocks by dilution in cell growth medium, the final concentration of DMSO in the assay being 0.6%. […] The cells were then incubated with compounds at 37° C. for 2 h. The medium was removed by aspiration and cells were lysed by addition of 20 uL of ice-cold cell lysis buffer per well. The plates were kept on ice for 20 min and 50 uL of standard diluent was added to each well. 50 uL of cell lysate from each well was transferred to respective wells in an assay plate and 50 uL of detection antibody was added to all wells except H1-H6 which were no antibody control wells. Capture assay plates were incubated overnight in a cold room.
# Following incubation of the cell lysates and detection antibodies in the ELISA plate, the wells were washed 4 times with 120 uL of wash buffer (1×), then 100 uL of diluted HRP conjugated antibody (1:100 dil in diluent) was added to each well, and the plate was incubated at RT for 30 min. The wells were then washed for 4 times with 120 uL of wash buffer (1×) and 100 uL of chromogen was added to each well and incubated in the dark at RT for 5-10 min. 100 uL of stop solution was added to each well and the absorbance measured at 450 nm, 0.1 s.
# Comparison of the assay signals obtained in the presence of compound with those of positive and negative controls (cells with no compound and no detection antibody being added), allows degree of inhibition of phospho-FAK [Y397] to be determined over a range of compound concentrations. […] The assay as described above was modified to determine the effect of inclusion of 50% (v/v) mouse or human plasma. In this assay, the compound plate was prepared as 2× concentration in 100 uL of 100% mouse or human plasma, and 60 uL of this was added to 60 uL of culture medium and incubated at 37° C. incubator for 2 h. The rest of the assay was carried out as described above.
# T2 sequence (Q05397 whole entry): as above
row,Compound,IC50 [µM]
1,"CCOP1(=O)Cc2ccc(c(OC)c2)Nc2ncc(C(F)(F)F)c(n2)Nc2ccc(nc2C(=O)NC)-c2cnn(c2)C(C)(C)CCO1 (single isomer, unassigned) [Example 50A]",0.4 to 4
2,"CCOP1(=O)Cc2ccc(c(OC)c2)Nc2ncc(C(F)(F)F)c(n2)Nc2ccc(nc2C(=O)NC)-c2cnn(c2)CC(F)(F)CO1 (single isomer, unassigned) [Example 59A]",0.4 to 4
3,CCCP1(=O)Cc2ccc(c(OC)c2)Nc2ncc(C(F)(F)F)c(n2)Nc2ccc(cc2C(=O)NC)-c2cnn(c2)CCCO1 (racemic) [Example 66],< 0.4
4,CCOP1(=O)Cc2ccc(c(OC)c2)Nc2ncc(C(F)(F)F)c(n2)Nc2ccc(nc2C(=O)NC)-c2cnn(c2C)CCCO1 (racemic) [Example 35],< 0.4
5,"CNC(=O)c1nc2ccc1Nc1nc(ncc1C(F)(F)F)Nc1ccc(cc1OC)CP(=O)(C(C)C)OCCCn1cc-2cn1 (single isomer, unassigned) [Example 68B]",< 0.4
6,"CNC(=O)c1nc2ccc1Nc1nc(ncc1C(F)(F)F)Nc1ccc(cc1OC)CP(C)(=O)OCCCn1cc-2cn1 (single isomer, unassigned) [Example 61A]",< 0.4
7,CCOP1(=O)Cc2ccc(c(Cl)c2)Nc2ncc(C(F)(F)F)c(n2)Nc2ccc(nc2C(=O)NC)-c2cnn(c2)CCCO1 (racemic) [Example 24],< 0.4
8,CCOP1(=O)Cc2ccc(c(OC)c2)Nc2ncc(C(F)(F)F)c(n2)Nc2ccc(nc2C(=O)NC)-c2c(C)nn(c2C)CCCO1 (racemic) [Example 43],0.4 to 4
9,CCOP1(=O)Cc2ccc(c(OC)c2)Nc2ncc(C(F)(F)F)c(n2)Nc2ccc(nc2C(=O)NOC)-c2cnn(c2)CCCO1 (racemic) [Example 46],< 0.4
10,CNC(=O)c1nc2ccc1Nc1nc(ncc1C(F)(F)F)Nc1ccc(cc1OC)CP(=O)(C(C)C)OCCCn1cc-2cn1 (racemic) [Example 68],< 0.4
11,CCOP1(=O)Cc2ccc(c(OC)c2)Nc2ncc(C(F)(F)F)c(n2)Nc2ccc(nc2C(=O)NC)-c2cnn(c2)CC2(COC2)CO1 (racemic) [Example 44],< 0.4
12,CCOP1(=O)Cc2ccc(c(OC)c2)Nc2ncc(C(F)(F)F)c(n2)Nc2ccc(nc2C(=O)NC)-c2cnn(c2)CC(C)(C)CO1 (racemic) [Example 47],< 0.4
13,"CCOP1(=O)Cc2ccc(c(OC)c2)Nc2ncc(C(F)(F)F)c(n2)Nc2ccc(nc2C(=O)NC)-c2cn(nc2C)CCCO1 (single isomer, unassigned) [Example 34A]",0.4 to 4

# Same assay, conditions: 50% (v/v) mouse plasma, mean IC50, read-out: FAK Activity Mechanistic (U87MG) MP
row,Compound,IC50 [µM]
1,CCCP1(=O)Cc2ccc(c(OC)c2)Nc2ncc(C(F)(F)F)c(n2)Nc2ccc(cc2C(=O)NC)-c2cnn(c2)CCCO1 (racemic) [Example 66],< 0.4
2,"CNC(=O)c1nc2ccc1Nc1nc(ncc1C(F)(F)F)Nc1ccc(cc1OC)CP(=O)(C(C)C)OCCCn1cc-2cn1 (single isomer, unassigned) [Example 68B]",< 0.4
3,"CNC(=O)c1nc2ccc1Nc1nc(ncc1C(F)(F)F)Nc1ccc(cc1OC)CP(C)(=O)OCCCn1cc-2cn1 (single isomer, unassigned) [Example 61A]",< 0.4
4,CCOP1(=O)Cc2ccc(c(OC)c2)Nc2ncc(C(F)(F)F)c(n2)Nc2ccc(nc2C(=O)NOC)-c2cnn(c2)CCCO1 (racemic) [Example 46],0.4 to 4
5,CNC(=O)c1nc2ccc1Nc1nc(ncc1C(F)(F)F)Nc1ccc(cc1OC)CP(=O)(C(C)C)OCCCn1cc-2cn1 (racemic) [Example 68],< 0.4

# Same assay, conditions: FAK Activity Mechanistic (U87MG) MP, 50% (v/v) mouse plasma, mean IC50
row,Compound,IC50 [µM]
1,CCOP1(=O)Cc2ccc(c(OC)c2)Nc2ncc(C(F)(F)F)c(n2)Nc2ccc(nc2C(=O)NC)-c2cc(C(=O)O)n(c2)CCCO1 (racemic) [Example 39],> 4

# Same assay, conditions: no plasma present, mean IC50, read-out: FAK Activity Mechanistic (U87MG) NP
row,Compound,IC50 [µM]
1,"CCOP1(=O)Cc2ccc(c(OC)c2)Nc2ncc(C(F)(F)F)c(n2)Nc2ccc(nc2C(=O)NC)-c2cnn(c2)C(C)(C)CCO1 (single isomer, unassigned) [Example 50A]",< 0.4
2,"CCOP1(=O)Cc2ccc(c(OC)c2)Nc2ncc(C(F)(F)F)c(n2)Nc2ccc(nc2C(=O)NC)-c2cnn(c2)CC(F)(F)CO1 (single isomer, unassigned) [Example 59A]",< 0.4
3,CCCP1(=O)Cc2ccc(c(OC)c2)Nc2ncc(C(F)(F)F)c(n2)Nc2ccc(cc2C(=O)NC)-c2cnn(c2)CCCO1 (racemic) [Example 66],< 0.4
4,CCOP1(=O)Cc2ccc(c(OC)c2)Nc2ncc(C(F)(F)F)c(n2)Nc2ccc(nc2C(=O)NC)-c2cnn(c2C)CCCO1 (racemic) [Example 35],< 0.4
5,"CNC(=O)c1nc2ccc1Nc1nc(ncc1C(F)(F)F)Nc1ccc(cc1OC)CP(=O)(C(C)C)OCCCn1cc-2cn1 (single isomer, unassigned) [Example 68B]",< 0.4
6,"CNC(=O)c1nc2ccc1Nc1nc(ncc1C(F)(F)F)Nc1ccc(cc1OC)CP(C)(=O)OCCCn1cc-2cn1 (single isomer, unassigned) [Example 61A]",< 0.4
7,CCOP1(=O)Cc2ccc(c(Cl)c2)Nc2ncc(C(F)(F)F)c(n2)Nc2ccc(nc2C(=O)NC)-c2cnn(c2)CCCO1 (racemic) [Example 24],0.4 to 4
8,CCOP1(=O)Cc2ccc(c(OC)c2)Nc2ncc(C(F)(F)F)c(n2)Nc2ccc(nc2C(=O)NC)-c2c(C)nn(c2C)CCCO1 (racemic) [Example 43],< 0.4
9,CCOP1(=O)Cc2ccc(c(OC)c2)Nc2ncc(C(F)(F)F)c(n2)Nc2ccc(nc2C(=O)NOC)-c2cnn(c2)CCCO1 (racemic) [Example 46],< 0.4
10,CNC(=O)c1nc2ccc1Nc1nc(ncc1C(F)(F)F)Nc1ccc(cc1OC)CP(=O)(C(C)C)OCCCn1cc-2cn1 (racemic) [Example 68],< 0.4
11,CCOP1(=O)Cc2ccc(c(OC)c2)Nc2ncc(C(F)(F)F)c(n2)Nc2ccc(nc2C(=O)NC)-c2cnn(c2)CC2(COC2)CO1 (racemic) [Example 44],< 0.4
12,CCOP1(=O)Cc2ccc(c(OC)c2)Nc2ncc(C(F)(F)F)c(n2)Nc2ccc(nc2C(=O)NC)-c2cc(C(=O)O)n(c2)CCCO1 (racemic) [Example 39],0.4 to 4
13,CCOP1(=O)Cc2ccc(c(OC)c2)Nc2ncc(C(F)(F)F)c(n2)Nc2ccc(nc2C(=O)NC)-c2cnn(c2)CC(C)(C)CO1 (racemic) [Example 47],< 0.4
14,"CCOP1(=O)Cc2ccc(c(OC)c2)Nc2ncc(C(F)(F)F)c(n2)Nc2ccc(nc2C(=O)NC)-c2cn(nc2C)CCCO1 (single isomer, unassigned) [Example 34A]",< 0.4
